The target of the assay is T1, KCNQ 2/3 channels (HEK293 cells stably expressing human KCNQ2 and KCNQ3 subunits) (Homo sapiens, UniProt O43525+O43526).
T1 construct: expressed in transfected cells; host or cells: HEK293
Nature of the assay: KCNQ2/3 channel activation, thallium flux FLIPR assay with BTC-AM dye. In kind it is cell-based. Conditions: for Emax: HEK293, maximum response relative to the response produced by 10 μM retigabine (set at 100%), read-out: Max. %; for EC50: HEK293 cells expressing human KCNQ2 and KCNQ3, thallium flux, FLIPR. Summed up:
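HEK293 cells stably expressing human KCNQ2/KCNQ3 were loaded with BTC-AM (3 μg/mL, 2 h, RT) and preincubated with compound for 4 min in pH 7.3 gluconate buffer containing 0.1 mM ouabain. Flux was triggered by 6 mM TlNO3/10 mM K2SO4 and read for 3 min; EC50 came from summed responses over basal, with maximum relative to 10 μM retigabine (100%).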

Molecules are shown by their SMILES.

As a reminder, the EC50 is the concentration that produces a half-maximal response. A high value points to lower potency in that assay.

For the compound `CC(C)(CC(=O)Nn1nc(C(F)(F)F)c2ccccc2c1=O)c1ccccc1` [Example 52, 3-methyl-N-[1-oxo-4-(trifluoromethyl)phthalazin-2(1H)-yl]-3-phenylbutanamide], the Emax turned out to be 116% and the concentration giving a half-maximal response (EC50) is 100 to 500 nM.

For `CSCC(=O)Nn1nc(C(F)(F)F)c2ccccc2c1=O` [Example 191, 2-(methylthio)-N-[1-oxo-4-(trifluoromethyl)phthalazin-2(1H)-yl]acetamide], the Emax is 25% and the EC50 is greater than 10000 nM.

`O=C(CSC12CC3CC(CC(C3)C1)C2)Nn1nc(C(F)(F)F)c2ccccc2c1=O` [Example 192, 2-(adamantan-1-ylthio)-N-[1-oxo-4-(trifluoromethyl)phthalazin-2(1H)-yl]acetamide]: the Emax is 155% and the EC50 was 100 to 500 nM.

In the case of `O=C(CC1CC2CCC1C2)Nn1nc(-c2ccc(Cl)cc2)c2c(F)ccc(F)c2c1=O` (racemic) [Example 184, (±)-2-(exo-bicyclo[2.2.1]hept-2-yl)-N-[4-(4-chlorophenyl)-5,8-difluoro-1-oxophthalazin-2(1H)-yl]acetamide], the Emax was determined as 154% and the concentration for a half-maximal effect (EC50) was less than 100 nM.

On to `O=C(Cc1ccccc1)Nn1nc(C(F)(F)F)c2ccccc2c1=O` [Example 57, N-[1-oxo-4-(trifluoromethyl)phthalazin-2(1H)-yl]-2-phenylacetamide], for which the Emax is 85% and the EC50 was in the range of 1000 to 10000 nM.

As for `O=C(CC1CC2CCC1C2)Nn1nc(-c2cccc(Cl)c2)c2ccccc2c1=O` (racemic) [Example 125, (±)-2-(exo-bicyclo[2.2.1]hept-2-yl)-N-[4-(3-chlorophenyl)-1-oxophthalazin-2(1H)-yl]acetamide], the Emax stood at 150% and the EC50 was less than 100 nM.

Consider `O=C(Cc1ccc(Cl)cc1)Nn1nc(-c2ccccc2)c2c(c1=O)CCCC2` [Example 187, 2-(4-chlorophenyl)-N-(1-oxo-4-phenyl-5,6,7,8-tetrahydrophthalazin-2(1H)-yl)acetamide], for which the Emax is 123% and the EC50 lay in the range of 100 to 500 nM.

Regarding `Cc1ccc(C)c(-c2nn(NC(=O)CC34CC5CC(CC(C5)C3)C4)c(=O)c3ccccc23)c1` [Example 156, 2-(adamantan-1-yl)-N-[4-(2,5-dimethylphenyl)-1-oxophthalazin-2(1H)-yl]acetamide], the Emax was found to be 177% and the EC50 lay within 100 to 500 nM.

In the case of `O=C(CC12CC3CC(CC(C3)C1)C2)Nn1nc(C2CCCCC2)c2ccccc2c1=O` [Example 75, 2-(adamantan-1-yl)-N-(4-cyclohexyl-1-oxophthalazin-2(1H)-yl)acetamide], the Emax came to 243% and the EC50 is less than 100 nM.

On to `COc1ccc(-c2nn(NC(=O)Cc3cc(F)cc(F)c3)c(=O)c3ccccc23)cc1` [Example 153, 2-(3,5-difluorophenyl)-N-[4-(4-methoxyphenyl)-1-oxophthalazin-2(1H)-yl]acetamide], for which the Emax stood at 143% and the 50% effective concentration (EC50) was in the range of 500 to 1000 nM.

Take `O=C(C[C@@H]1C[C@@H]2CC[C@H]1C2)Nn1nc(C2CCC2)c2ccccc2c1=O` [Example 66, 2-[(1S,2S,4R)-bicyclo[2.2.1]hept-2-yl]-N-(4-cyclobutyl-1-oxophthalazin-2(1H)-yl)acetamide]: the Emax amounted to 148% and the EC50 was less than 100 nM.

For the compound `COc1ccc(-c2nn(NC(=O)CC3CC4CCC3C4)c(=O)c3ccccc23)cc1` (racemic) [Example 151, (±)-2-(exo-bicyclo[2.2.1]hept-2-yl)-N-[4-(4-methoxyphenyl)-1-oxophthalazin-2(1H)-yl]acetamide], the Emax was found to be 141% and the concentration giving a half-maximal response (EC50) is less than 100 nM.

`O=C(CC1(c2ccccc2)CCCC1)Nn1nc(-c2ccc(Cl)cc2)c2ccccc2c1=O` [Example 119, N-[4-(4-chlorophenyl)-1-oxophthalazin-2(1H)-yl]-2-(1-phenylcyclopentyl)acetamide]: the Emax was found to be 12% and the 50% effective concentration (EC50) was greater than 10000 nM.

Turning to `O=C(Cc1ccc(Cl)cc1)Nn1nc(-c2ccccc2)c2c(F)ccc(F)c2c1=O` [Example 16, 2-(4-chlorophenyl)-N-(5,8-difluoro-1-oxo-4-phenylphthalazin-2(1H)-yl)acetamide], the Emax was determined as 175% and the EC50 was in the range of 100 to 500 nM.

With `Cc1ccc(-c2nn(NC(=O)Cc3ccc(Cl)cc3)c(=O)c3ccccc23)cc1` [Example 135, 2-(4-chlorophenyl)-N-[4-(4-methylphenyl)-1-oxophthalazin-2(1H)-yl]acetamide], the Emax is 95% and the EC50 lay within 100 to 500 nM.

Take `CC(C)(C)c1nn(NC(=O)Cc2ccc(Cl)cc2)c(=O)c2ccccc12` [Example 65, N-(4-tert-butyl-1-oxophthalazin-2(1H)-yl)-2-(4-chlorophenyl)acetamide]: the Emax amounted to 151% and the concentration giving a half-maximal response (EC50) fell in the range of 100 to 500 nM.

Regarding `O=C(Cc1cccc(OC(F)(F)F)c1)Nn1nc(-c2ccc(Cl)cc2)c2ccccc2c1=O` [Example 98, N-[4-(4-chlorophenyl)-1-oxophthalazin-2(1H)-yl]-2-[3-(trifluoromethoxy)phenyl]acetamide], the Emax was 80% and the EC50 lay in the range of 500 to 1000 nM.

Take `O=C(Nn1nc(C(F)(F)F)c2ccccc2c1=O)C(F)(F)c1ccccc1` [Example 44, 2,2-difluoro-N-[1-oxo-4-(trifluoromethyl)phthalazin-2(1H)-yl]-2-phenylacetamide]: the Emax stood at 35% and the half-maximal effective concentration (EC50) was greater than 10000 nM.

For `O=C(Cc1ccc(Cl)s1)Nn1nc(C(F)(F)F)c2ccccc2c1=O` [Example 55, 2-(5-chloro-2-thienyl)-N-[1-oxo-4-(trifluoromethyl)phthalazin-2(1H)-yl]acetamide], the Emax came to 72% and the EC50 was 500 to 1000 nM.

Take `O=C(Cc1ccc(Cl)cc1)Nn1nc(-c2ccccc2)c2cc(F)ccc2c1=O` [Example 36, 2-(4-chlorophenyl)-N-(6-fluoro-1-oxo-4-phenylphthalazin-2(1H)-yl)acetamide]: the Emax came to 155% and the 50% effective concentration (EC50) fell in the range of 100 to 500 nM.

As for `O=C(Cc1cc(F)cc(F)c1)Nn1nc(C2CCCC2)c2ccccc2c1=O` [Example 73, N-(4-cyclopentyl-1-oxophthalazin-2(1H)-yl)-2-(3,5-difluorophenyl)acetamide], the Emax was determined as 142% and the half-maximal effective concentration (EC50) is less than 100 nM.

As to `O=C(Cc1ccc(Cl)c(F)c1)Nn1nc(C(F)(F)F)c2ccccc2c1=O` [Example 59, 2-(4-chloro-3-fluorophenyl)-N-[1-oxo-4-(trifluoromethyl)phthalazin-2(1H)-yl]acetamide], the Emax worked out at 90% and the half-maximal effective concentration (EC50) fell in the range of 1000 to 10000 nM.

Regarding `O=C(Cc1ccc(Cl)cc1)Nn1nc(-c2ccccc2)c2ccccc2c1=O` [Example 4, 2-(4-chlorophenyl)-N-(1-oxo-4-phenylphthalazin-2(1H)-yl)acetamide], the Emax was determined as 157% and the EC50 was 100 to 500 nM.

Take `CC(C)c1ccc(-c2nn(NC(=O)CC34CC5CC(CC(C5)C3)C4)c(=O)c3ccccc23)cc1` [Example 169, 2-(adamantan-1-yl)-N-[4-(4-isopropylphenyl)-1-oxophthalazin-2(1H)-yl]acetamide]: the Emax came to 139% and the EC50 is 100 to 500 nM.

With `O=C(Cc1cccc(C(F)(F)F)c1)Nn1nc(-c2ccc(Cl)cc2)c2ccccc2c1=O` [Example 100, N-[4-(4-chlorophenyl)-1-oxophthalazin-2(1H)-yl]-2-[3-(trifluoromethyl)phenyl]acetamide], the Emax worked out at 79% and the EC50 is 100 to 500 nM.

For the origin of these results see US8629143B2, “Potassium channel modulators” (AbbVie Inc., priority 2009, dated 2014).
